{"source": "patent US8951752B2", "about": "“N-demethyase genes and uses thereof” (priority 2011, dated 2015)", "key": {"[1]": {"tested_on": "cell extracts prepared from P. putida CBB5", "assay": "NADH-dependent N-demethylase activity of CBB5 cell extracts", "assay_type": "biochemical, Pseudomonas putida CBB5", "settings": "0.5 mM substrate, 7.2 mg mL^−1 protein"}, "[2]": {"molecular_target": "T1, N-demethylase (Ndm: NdmA and NdmB subunits) (Pseudomonas putida, UniProt H9N289+H9N290)", "T1 construct": "lane 3, natural Ndm purified from P. putida CBB5; made in house; host or cells: purified from the natural strain Pseudomonas putida CBB5 (DEAE, Phenyl and Q Sepharose); not recombinant", "T1 sequence (H9N289 1-351)": "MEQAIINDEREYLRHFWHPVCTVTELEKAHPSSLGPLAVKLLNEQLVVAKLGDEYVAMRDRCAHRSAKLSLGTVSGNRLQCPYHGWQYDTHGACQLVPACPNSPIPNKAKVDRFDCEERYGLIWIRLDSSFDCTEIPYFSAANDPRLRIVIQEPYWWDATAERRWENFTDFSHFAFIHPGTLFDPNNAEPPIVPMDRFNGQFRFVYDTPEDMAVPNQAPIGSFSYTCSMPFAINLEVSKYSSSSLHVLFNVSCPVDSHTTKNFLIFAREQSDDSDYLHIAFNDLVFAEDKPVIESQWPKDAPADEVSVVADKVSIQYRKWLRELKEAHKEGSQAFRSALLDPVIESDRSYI", "T1 sequence (H9N290 1-355)": "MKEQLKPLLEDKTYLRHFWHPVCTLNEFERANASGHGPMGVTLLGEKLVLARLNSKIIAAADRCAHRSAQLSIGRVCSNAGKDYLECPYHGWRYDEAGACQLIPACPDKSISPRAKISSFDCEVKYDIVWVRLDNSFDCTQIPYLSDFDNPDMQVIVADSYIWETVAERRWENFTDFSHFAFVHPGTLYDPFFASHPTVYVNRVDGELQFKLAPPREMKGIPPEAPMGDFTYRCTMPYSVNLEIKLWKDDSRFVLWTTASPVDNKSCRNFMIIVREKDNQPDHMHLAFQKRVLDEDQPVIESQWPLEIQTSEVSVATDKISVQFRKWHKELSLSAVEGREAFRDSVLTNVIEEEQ", "assay": "Methylxanthine N-demethylase activity assay with purified Ndm plus partially purified Ccr", "assay_type": "biochemical, Pseudomonas putida CBB5", "settings": "for Relative N-demethylase activity: relative to paraxanthine", "protocol": "Methylxanthine N-demethylase activity assay contained, in 1-mL total volume, 0.5 mM methylxanthine, 1 mM NADH, 50 μM Fe(NH4)2(SO4)2, and an appropriate amount of Ndm (0.08-7.5 mg protein, depending on purity of the protein) in 50 mM KPi buffer. Approximately 4 U of partially purified Ccr was added to reaction mixture when assaying Ndm in Phenyl Sepharose and Q Sepharose eluant-fractions (Ccr was not added to the enzyme reaction mixture when assaying Ndm activity in DEAE Sepharose eluant-fractions because Ccr co-eluted with Ndm). The reaction mixture was incubated at 30° C. with 300 rpm shaking on an incubating microplate shaker (VWR). Periodically, a small aliquot was sampled from the reaction mixture and mixed with equal volume of acetonitrile for quantifying concentrations of methylxanthines and N-demethylated products by HPLC. One unit of N-demethylase activity was defined as the consumption of one μmole methylxanthine per minute. When Ndm was coupled with the reductase and ferredoxin components of naphthalene dioxygenase of Pseudomonas sp. strain 9816 (Haigler & Gibson, 1990a; Haigler & Gibson, 1990b), 30 and 100 μg of the respective proteins were used. Spinach ferredoxin reductase and ferredoxin were also substituted for Ccr as described by Subramanian et al. (1979).\nDetermination of Kinetic Parameters. Apparent kinetic parameters of Ndm were determined by measuring the initial rate of disappearance (vo) of paraxanthine or 7-methylxanthine in 50 mM KPi buffer (pH 7.5) at 30° C. The paraxanthine and 7-methylxanthine concentrations ([S]) used in these experiments were from 20 to 500 μM. Substrates were incubated with Ndm and Ccr under standard conditions for 15 minutes. At 1, 5, 10, and 15 minutes, samples were removed from the reaction mixtures to quantitate substrate concentrations by HPLC. Plots of substrate concentrations against time were used to determine the initial rates of disappearance of substrates which were linear over 15 minutes. The apparent kinetic parameters were determined from Michaelis-Menten plots of Vo against [S] fitted with the equation\nDetermination of Oxygen Requirement. Oxygen consumption by Ndm during N-demethylation of paraxanthine was determined in a closed reaction vessel equipped with a Clarke-type oxygen electrode (Digitial Modell 0, Rank Brothers Ltd., Cambridge, England). The electrode was calibrated by using glucose oxidase (Sigma) and glucose for consumption of oxygen. Ndm activity assay was performed at 30° C. in a total volume of 1 ml of air-saturated 50 mM KPi buffer (pH 7.5) with 100 μM paraxanthine, 200 μM NADH, 50 μM Fe(NH4)2(SO4)2, 0.2 mg purified Ndm, and 4 U partially purified Ccr. The reaction was initiated by adding Ndm and partially purified Ccr after equilibration of all other reaction components for 3.3 minutes. After 13 minutes, a 100-μL aliquot was withdrawn from the reaction, immediately mixed with equal volume of acetonitrile to stop the enzyme reaction, and analyzed for N-demethylation product by HPLC. Background oxygen consumption, possibly due to NADH oxidase enzyme activity in the partially purified Ccr, was quantitated in control reactions containing all reaction components except paraxanthine.\nFormaldehyde Determination. […] Twenty μL Nash reagent was added to 50 μl Ndm reaction sample plus 50 μl acetonitrile. This mixture was incubated at 51° C. for 12 minutes."}}}
{"molecule": "Cn1cnc2c1c(=O)[nH]c(=O)n2C", "note": "[Theobromine, 3,7-dimethylxanthine]", "values": [{"measurement": "N-demethylation by NdmC fraction", "setting": "NdmC", "result": "not N-demethylated"}, {"measurement": "degradation rate compared with paraxanthine", "setting": "[1]", "result": "significantly slower"}, {"measurement": "Products identified", "setting": "[2]; same products at 500 and 200 μM substrate", "result": "3- & 7-methylxanthine, and xanthine"}, {"measurement": "Relative N-demethylase activity", "setting": "[2]; substrate conc. 200 μM", "result": "80.2 ± 7.8"}, {"measurement": "Relative N-demethylase activity", "setting": "[2]; substrate conc. 500 μM", "result": "59.8 ± 1.9"}]}
